# Test results from US9056111B1, “Selective efflux inhibitors and related pharmaceutical compositions and methods of treatment” (STC.UNM, priority 2011, dated 2015).
# “And” between values parts separate entries of the source, which are not always exact repeats. Equal values may be shown once. “Also recorded” adds a separate entry of the source.
# Columns and labels:
# ABCB1 / ABCG2 = biological target: T1, ABCB1 / ABCG2 (Homo sapiens, UniProt Q9UNQ0); experiment: JC-1 efflux inhibition dose response, flow cytometry, Ig-MXP3 cells; conditions: human, probe JC-1 (1 µM), ~Fold G2 Selective (B1/G2), quotient of average ABCB1 IC50 and average ABCG2 IC50, efflux assay
# T1 sequence (Q9UNQ0 1-655): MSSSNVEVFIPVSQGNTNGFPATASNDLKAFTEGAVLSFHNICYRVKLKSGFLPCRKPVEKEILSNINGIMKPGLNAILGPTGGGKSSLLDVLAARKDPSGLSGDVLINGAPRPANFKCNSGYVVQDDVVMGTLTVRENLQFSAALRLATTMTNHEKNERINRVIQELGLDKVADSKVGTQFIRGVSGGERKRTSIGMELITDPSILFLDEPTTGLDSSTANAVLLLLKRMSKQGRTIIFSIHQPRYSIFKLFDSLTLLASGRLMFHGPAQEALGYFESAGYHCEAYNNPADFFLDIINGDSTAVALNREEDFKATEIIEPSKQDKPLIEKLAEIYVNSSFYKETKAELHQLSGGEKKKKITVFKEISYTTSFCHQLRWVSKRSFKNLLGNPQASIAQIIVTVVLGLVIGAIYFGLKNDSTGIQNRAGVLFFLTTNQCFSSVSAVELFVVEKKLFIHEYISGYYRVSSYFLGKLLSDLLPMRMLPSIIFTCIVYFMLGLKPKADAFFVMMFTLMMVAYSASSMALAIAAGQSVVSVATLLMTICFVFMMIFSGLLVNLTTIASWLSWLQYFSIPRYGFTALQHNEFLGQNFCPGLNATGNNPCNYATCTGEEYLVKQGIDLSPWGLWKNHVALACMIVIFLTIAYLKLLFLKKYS
# Method in brief: (§1)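 Ig-MXP3 (ABCG2) and Jurkat-DNR (ABCB1) cells, run separately, are pre-stained with 1 μM JC-1 and added to compound in PBS; retained dye is read by high-throughput flow cytometry with time-gated analysis.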
# ABCG2 = biological target: T2, ABCG2 (Homo sapiens, UniProt Q9UNQ0); experiment: as above
# T2 sequence (Q9UNQ0 1-655): T1 sequence (Q9UNQ0 1-655)
# Method in brief: as §1
# [1] = test system: ABCG2 over-expressing Ig-MXP3 cells; experiment: Chemoreversal assay: potentiation of mitoxantrone (MTX) killing; format: cell-based; conditions: Ig-MXP3 cells, constant 30 nM MTX, varied inhibitor dose; read-out: CR50 ABCG2
# ABCB1 = ABCB1 (Homo sapiens, UniProt P08183); experiment: JC-1 efflux inhibition dose response, flow cytometry, Jurkat-DNR cells; conditions: for IC50: IC50 ABCB1 (efflux inhibition of JC-1 substrate), Jurkat-DNR cells over-expressing ABCB1, averages of two to four replicates
# Sequence of ABCB1 (P08183 whole entry): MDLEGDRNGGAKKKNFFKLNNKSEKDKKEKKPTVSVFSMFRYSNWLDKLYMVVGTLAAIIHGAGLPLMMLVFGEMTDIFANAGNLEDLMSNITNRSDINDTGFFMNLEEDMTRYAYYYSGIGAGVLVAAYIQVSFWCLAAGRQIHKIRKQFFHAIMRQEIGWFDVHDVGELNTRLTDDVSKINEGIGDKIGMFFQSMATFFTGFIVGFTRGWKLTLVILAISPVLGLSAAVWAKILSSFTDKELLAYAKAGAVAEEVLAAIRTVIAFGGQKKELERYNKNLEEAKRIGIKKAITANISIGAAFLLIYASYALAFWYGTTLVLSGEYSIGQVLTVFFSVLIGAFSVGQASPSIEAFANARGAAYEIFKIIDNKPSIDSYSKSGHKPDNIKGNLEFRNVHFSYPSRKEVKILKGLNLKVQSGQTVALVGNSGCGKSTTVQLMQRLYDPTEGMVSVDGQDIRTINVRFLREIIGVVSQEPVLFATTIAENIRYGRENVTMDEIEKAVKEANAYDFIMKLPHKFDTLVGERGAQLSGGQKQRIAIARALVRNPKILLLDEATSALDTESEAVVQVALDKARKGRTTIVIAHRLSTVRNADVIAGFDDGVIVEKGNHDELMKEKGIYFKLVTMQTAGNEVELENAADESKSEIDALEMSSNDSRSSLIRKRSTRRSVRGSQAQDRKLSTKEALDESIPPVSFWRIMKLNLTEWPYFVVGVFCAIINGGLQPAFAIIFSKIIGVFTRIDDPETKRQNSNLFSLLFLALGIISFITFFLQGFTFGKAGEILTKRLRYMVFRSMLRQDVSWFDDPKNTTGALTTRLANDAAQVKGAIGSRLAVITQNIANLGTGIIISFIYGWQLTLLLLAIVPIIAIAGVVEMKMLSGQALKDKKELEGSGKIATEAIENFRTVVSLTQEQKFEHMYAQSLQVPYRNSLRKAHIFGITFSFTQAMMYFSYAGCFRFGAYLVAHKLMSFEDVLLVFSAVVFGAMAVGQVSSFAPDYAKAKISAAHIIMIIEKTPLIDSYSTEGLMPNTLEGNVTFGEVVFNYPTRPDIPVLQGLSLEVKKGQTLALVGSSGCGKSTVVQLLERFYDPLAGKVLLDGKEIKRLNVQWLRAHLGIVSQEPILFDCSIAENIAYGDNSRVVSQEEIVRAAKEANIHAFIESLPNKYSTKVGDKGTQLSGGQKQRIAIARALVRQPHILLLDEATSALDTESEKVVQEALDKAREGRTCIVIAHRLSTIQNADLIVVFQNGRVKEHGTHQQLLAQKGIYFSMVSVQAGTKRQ
# Method in brief: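 Jurkat-DNR cells pre-stained with 1 μM JC-1 were incubated with compound (final 50 μM to 69 nM, […]) at 1×10^6 cells/mL, rotated 30 min at 25° C. Retained JC-1 read by flow cytometry (488 nm excitation, 530/40 nm emission). Curves fitted to a four-parameter logistic.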
# [2] = test system: ABCB1 over-expressing Jurkat-DNR cells; experiment: Chemoreversal assay: potentiation of daunorubicin (DNR) killing; format: cell-based; conditions: constant 100 nM DNR, varied inhibitor dose, read-out: CR50 ABCB1
# Ig-MXP3 cells = experiment: Direct cytotoxicity (Toxic Dose 50) without chemotherapeutic; format: cell-based; conditions: Ig-MXP3 cells, inhibitor without chemotherapeutic
# Jurkat-DNR cells = experiment: as above; conditions: Jurkat-DNR cells, inhibitor without chemotherapeutic
# Method: Cells (ABCB1, Jurkat-DNR or ABCG2 Ig-MXP3) are incubated with the test compound (3 order of magnitude concentration range) over a 3-day and 7-day period in the presence of the inhibitor and chemotherapeutic (ABCB1, DNR or ABCG2 MTX), such that a cell concentration of at least 1×10^5 cells/mL is maintained. Cell viability is determined by trypan blue staining and enumeration under light microscopy. […] A chemoreversal index (Chemoreversal 50, CR50) is determined from the viability assessment. Using a similar approach, a direct cytotoxicity index (Toxic Dose 50, TD50) is determined by assessment of cell death of cells grown in media alone.
# Cells (ABCB1, Jurkat-DNR or ABCG2 Ig-MXP3) were incubated with the test compound in a 3 order of magnitude concentration range over three and seven day periods in the presence of the inhibitor and chemotherapeutic (ABCB1, 100 nM DNR or ABCG2 30 nM MTX), such that a cell concentration of at least 1×10^5 cells mL^−1 was maintained. Cell viability was determined by trypan blue staining and enumeration under light microscopy. […] A chemoreversal index (Chemoreversal 50, CR50) was determined from the viability assessment. Using a similar approach, a direct cytotoxicity index (Toxic Dose 50, TD50) was determined by assessment of cell death of cells grown in media alone.
# [3] = test system: ABCG2 over-expressing Igrov1/T8 tumors; experiment: ABCG2 resistant Igrov1/T8 tumor xenograft, combination with topotecan; format: in vivo, CB-17 SCID mice
# Method: Specific-pathogen-free adult CB-17 female SCID mice (5-6 weeks of age) weighing 20-25 g, are purchased. Briefly, ABCG2 over-expressing Igrov1/T8 cells are injected (5×10^6 cells/mouse). Prior to injection, Igrov1/T8 cells are maintained in topotecan in order to assure continuous expression of ABCG2. Tumors are allowed to grow for 3-4 weeks or until tumor volumes are greater than ˜100 cubic millimeters, at which time they are stratified into treatment groups. Treatment is administered and we observe the size of the tumor and weight of the mouse over a 7 day period. At the end of 7 days, we: 1) sacrifice the animal; 2) measure and weigh the tumor (if present); 3) analyze the histology of the tumor as well as other organs for evidence of toxicity; and 4) measure the expression of ABCG2 receptors on the tumor to determine if in vivo growth has altered ABCG2 expression. In our initial studies, we have generally observed high survival at 4 weeks (>90%) which escalates rapidly with near 100% mortality by 6 weeks. This approach is well described elsewhere.^9
# Tumor-bearing mice were injected with either 150 nM TPT, 100 nM SID 88095709 (probe resupply), or 500 nM SID 85752814 (original SMR hit).
# Igrov1/T8 cells were injected into the hind limbs of CB-17 SCID mice at a concentration of 1×10^7 cells in 200 μL, n of 3 per condition. The tumor was grown until the volume was in the range of 75 mm^3 to 250 mm^3. […] Injections were repeated daily and the size of the tumor was determined as a fraction of the starting size. After four days the mice were sacrificed and any recurring tumor was verified by light microscopy examination of histological sections. Mice were studied and maintained in accordance with guidelines of our Institutional Animal Research Committee at UNM HSC.
# parental Igrov1 cells = experiment: Topotecan killing of parental cells; format: cell-based; conditions: Homo sapiens, IGROV-1
# [4] = test system: resistant Igrov1/T8 cells; experiment: Topotecan killing of resistant cells; format: cell-based; conditions: Homo sapiens, IGROV-1
Compound,selectivity ratio at 30 min (ABCB1 / ABCG2),IC50 (ABCG2) [nM],EC50 [1] [nM],IC50 (ABCB1),EC50 [2] [nM],TD50 ABCG2 (Ig-MXP3 cells) [µM],TD50 ABCB1 (Jurkat-DNR cells) [µM],"~Fold G2 Selective (B1/G2) (ABCG2; quotient of average ABCB1 IC50 and average ABCG2 IC50, efflux assay) [fold]","efflux inhibition activity ABCB1 (ABCB1; JC-1 efflux, Jurkat-DNR)","Tumor size reduced by ([3]; 100 nM topotecan + 100 nM compound intra-tumorally every 24 hours, 5 days (120 hours), n=5) [%]","tumor size, inhibitor alone ([3]; inhibitor alone (100 nM or 500 nM as printed), Example 3)","tumor size, topotecan alone ([3]; 100 nM topotecan alone, Example 3)","tumor size, single agent ([3]; 150 nM TPT, 100 nM SID 88095709 or 500 nM SID 85752814 alone, listed as TPT)",EC50 (parental Igrov1 cells) [nM],EC50 [4] [nM]
COc1ccccc1-c1cc2nc(-c3ccccc3)cc(N3CCN(C(=O)c4ccoc4)CC3)n2n1 [Compound 34],4.8,450 ± 170,490,2170 ± 760 nM,450,6.50,4.37,,,,,,,,
COc1ccc(-c2cc3nc(-c4ccccc4)cc(N4CCN(C(=O)c5ccoc5)CC4)n3n2)cc1 [Compound 36],1.2,1160 ± 660,380,1440 ± 700 nM,230,>100,5.54,,,,,,,,
COc1ccccc1-c1cc(N2CCN(C(=O)c3ccoc3)CC2)n2nc(-c3ccccc3)cc2n1 [Compound 44],1.2,3660 ± 2540,680,4520 nM and 4620 nM,170,7.62,3.73,,,,,,,,
O=C(c1ccoc1)N1CCN(c2cc(-c3ccco3)nc3cc(-c4ccco4)nn23)CC1 [Compound 52],0.7,2350,1210,1700 nM,190,>100,1.93,,,,,,,,
O=C(c1ccoc1)N1CCN(c2cc(-c3ccco3)nc3cc(-c4cccc(Cl)c4)nn23)CC1 [Compound 53],2.5,2550,1380,6420 nM,530,10.80,8.53,,,,,,,,
COc1ccc(-c2cc3nc(-c4ccco4)cc(N4CCN(C(=O)c5ccoc5)CC4)n3n2)cc1 [Compound 57],3.9,890,760,3450 nM,5770,>100,>100,,,,,,,,
O=C(c1ccoc1)N1CCN(c2cc(-c3ccoc3)nc3cc(-c4ccccc4)nn23)CC1 [Compound 61],1.1,1400,760,1600 nM,420,18.30,7.33,,,,,,,,
COc1cccc(-c2cc(N3CCN(C(=O)c4ccoc4)CC3)n3nc(-c4ccccc4)cc3n2)c1 [Compound 65],83,200,680,16400 nM,180,67.80,5.77,82.1,,,,,,,
CC(=O)N1CCN(c2cc(-c3ccco3)nc3cc(-c4ccccc4)nn23)CC1 [Compound 74],7,520,930,3640 nM,190,>100,10.10,,,,,,,,
CC(=O)N1CCN(c2cc(-c3ccco3)nc3cc(-c4cccc(Cl)c4)nn23)CC1 [Compound 87],1.4,560,580,800 nM,80,>100,17.60,,,,,,,,
COc1cccc(-c2cc3nc(-c4ccco4)cc(N4CCN(C(C)=O)CC4)n3n2)c1 [Compound 88],0.9,1900,1180,1640 nM,320,>100,49.30,,,,,,,,
COc1cccc(-c2cc3nc(C)c(C)c(N4CCN(Cc5ccoc5)CC4)n3n2)c1 [SID 97301789],233,,,,,> 100,> 100,,abolished activity,55,No reduction in size,,,,
"CC[C@@]1(O)C(=O)OCc2c1cc1n(c2=O)Cc2cc3c(CN(C)C)c(O)ccc3nc2-1 [Topotecan, reference compound]",,,,,,,,,,,,No reduction in size,remained the same or increased; also recorded: did not affect the growth of tumors,7,311
